Laboratory results reported in PubChem BioAssay (NCI).
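GI50 marks 50% less growth. TGI marks complete inhibition of growth.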

How the values were obtained:
Assay in all cases: inhibition of tumour cell growth, NCI panel, 384-well format; in the data active = GI50 below about 0.43 µM; inactive = the rest
PC-3 prostate = system: PC-3 prostate
HL-60(TB) leukemia = system: HL-60(TB) leukemia
SN12C renal = system: SN12C renal
TK-10 renal = system: TK-10 renal
HCT-15 colon = system: HCT-15 colon
NCI-H460 NSCLC = system: NCI-H460 NSCLC
M14 melanoma = system: M14 melanoma
SK-OV-3 ovarian = system: SK-OV-3 ovarian
OVCAR-3 ovarian = system: OVCAR-3 ovarian
NCI/ADR-RES ovarian = system: NCI/ADR-RES ovarian
786-0 renal = system: 786-0 renal
CAKI-1 renal = system: CAKI-1 renal
OVCAR-8 ovarian = system: OVCAR-8 ovarian
HOP-62 NSCLC = system: HOP-62 NSCLC
UACC-257 melanoma = system: UACC-257 melanoma
ACHN renal = system: ACHN renal
NCI-H226 lung = system: NCI-H226 lung
OVCAR-4 ovarian = system: OVCAR-4 ovarian
NCI-H322M lung = system: NCI-H322M lung
OVCAR-5 ovarian = system: OVCAR-5 ovarian
HCT-116 colon = system: HCT-116 colon
SF-295 CNS = system: SF-295 CNS
U251 glioblastoma = system: U251 glioblastoma
HS 578T breast = system: HS 578T breast
UO-31 renal = system: UO-31 renal
HT29 colon = system: HT29 colon
MOLT-4 leukemia = system: MOLT-4 leukemia
SF-539 CNS = system: SF-539 CNS
KM12 colon = system: KM12 colon
RXF 393 renal = system: RXF 393 renal
SK-MEL-5 melanoma = system: SK-MEL-5 melanoma
BT-549 breast = system: BT-549 breast
CCRF-CEM leukemia = system: CCRF-CEM leukemia
MALME-3M melanoma = system: MALME-3M melanoma
T-47D breast = system: T-47D breast
HOP-92 NSCLC = system: HOP-92 NSCLC
SNB-75 CNS = system: SNB-75 CNS
EKVX NSCLC = system: EKVX NSCLC
SR leukemia = system: SR leukemia
SNB-19 CNS = system: SNB-19 CNS
MDA-MB-435 melanoma = system: MDA-MB-435 melanoma
SF-268 CNS = system: SF-268 CNS
SW-620 colon = system: SW-620 colon
LOX IMVI melanoma = system: LOX IMVI melanoma
A549 NSCLC = system: A549 NSCLC
MDA-MB-468 breast = system: MDA-MB-468 breast
HCC-2998 colon = system: HCC-2998 colon
COLO 205 colon = system: COLO 205 colon
SK-MEL-28 melanoma = system: SK-MEL-28 melanoma
IGROV1 ovarian = system: IGROV1 ovarian
RPMI-8226 leukemia = system: RPMI-8226 leukemia
NCI-H522 lung = system: NCI-H522 lung
A498 renal = system: A498 renal
K-562 leukemia = system: K-562 leukemia
MDA-MB-231 breast = system: MDA-MB-231 breast
NCI-H23 lung = system: NCI-H23 lung
DU-145 prostate = system: DU-145 prostate
MCF7 breast = system: MCF7 breast

Cc1noc(C)c1-c1ccc2[nH]c(=O)n3c2c1OC[C@@H]3c1ccccn1
4800 nM: TGI (NCI-H522 lung)
53000 nM: TGI (IGROV1 ovarian)
1600 nM: TGI (HS 578T breast)
18500 nM: TGI (NCI/ADR-RES ovarian)
62200 nM: TGI (HOP-62 NSCLC)
9840 nM: TGI (SK-MEL-5 melanoma)
41800 nM: TGI (SF-295 CNS)
> 100000 nM: TGI (PC-3 prostate) | TGI (SN12C renal) | TGI (NCI-H460 NSCLC) | TGI (M14 melanoma) | TGI (OVCAR-3 ovarian) | TGI (786-0 renal) | TGI (CAKI-1 renal) | TGI (OVCAR-8 ovarian) | TGI (UACC-257 melanoma) | TGI (ACHN renal) | TGI (NCI-H226 lung) | TGI (NCI-H322M lung) | TGI (OVCAR-5 ovarian) | TGI (HCT-116 colon) | TGI (U251 glioblastoma) | TGI (UO-31 renal) | TGI (HT29 colon) | TGI (KM12 colon) | TGI (CCRF-CEM leukemia) | TGI (HOP-92 NSCLC) | TGI (SNB-75 CNS) | TGI (EKVX NSCLC) | TGI (SNB-19 CNS) | TGI (MDA-MB-435 melanoma) | TGI (SF-268 CNS) | TGI (SW-620 colon) | TGI (A549 NSCLC) | TGI (COLO 205 colon) | TGI (SK-MEL-28 melanoma) | TGI (A498 renal) | TGI (K-562 leukemia) | TGI (MDA-MB-231 breast) | TGI (NCI-H23 lung) | TGI (DU-145 prostate) | TGI (MCF7 breast)
8120 nM: TGI (MDA-MB-468 breast)
11000 nM: TGI (RXF 393 renal)
25200 nM: TGI (BT-549 breast)
32300 nM: TGI (MALME-3M melanoma)
495 nM: TGI (OVCAR-4 ovarian)
active: GI50 (PC-3 prostate) 245 nM | GI50 (HL-60(TB) leukemia) 55.6 nM | GI50 (TK-10 renal) 265 nM | GI50 (HCT-15 colon) 240 nM | GI50 (SK-OV-3 ovarian) 244 nM | GI50 (OVCAR-3 ovarian) 227 nM | GI50 (CAKI-1 renal) 243 nM | GI50 (HOP-62 NSCLC) 304 nM | GI50 (OVCAR-4 ovarian) 107 nM | GI50 (SF-295 CNS) 144 nM | GI50 (HS 578T breast) 152 nM | GI50 (HT29 colon) 371 nM | GI50 (MOLT-4 leukemia) 421 nM | GI50 (SK-MEL-5 melanoma) 198 nM | GI50 (BT-549 breast) 293 nM | GI50 (MALME-3M melanoma) 398 nM | GI50 (T-47D breast) 318 nM | GI50 (HOP-92 NSCLC) 241 nM | GI50 (SR leukemia) 52.3 nM | GI50 (LOX IMVI melanoma) 277 nM | GI50 (MDA-MB-468 breast) 241 nM | GI50 (HCC-2998 colon) 127 nM | GI50 (RPMI-8226 leukemia) 133 nM | GI50 (NCI-H522 lung) 76.6 nM | GI50 (A498 renal) 420 nM | GI50 (MCF7 breast) 125 nM
47800 nM: TGI (T-47D breast)
11900 nM: TGI (MOLT-4 leukemia)
170 nM: TGI (HL-60(TB) leukemia)
21300 nM: TGI (SK-OV-3 ovarian)
533 nM: TGI (RPMI-8226 leukemia)
8790 nM: TGI (SF-539 CNS)
2110 nM: TGI (HCC-2998 colon)
12000 nM: TGI (HCT-15 colon)
1040 nM: TGI (LOX IMVI melanoma)
inactive: GI50 (SN12C renal) 3690 nM | GI50 (NCI-H460 NSCLC) 2190 nM | GI50 (M14 melanoma) 720 nM | GI50 (NCI/ADR-RES ovarian) 653 nM | GI50 ([…]-0 renal) 749 nM | GI50 (OVCAR-8 ovarian) 473 nM | GI50 (UACC-257 melanoma) 925 nM | GI50 (ACHN renal) 1220 nM | GI50 (NCI-H226 lung) 1430 nM | GI50 (NCI-H322M lung) 591 nM | GI50 (OVCAR-5 ovarian) 529 nM | GI50 (HCT-116 colon) 501 nM | GI50 (U251 glioblastoma) 2560 nM | GI50 (UO-31 renal) 722 nM | GI50 (SF-539 CNS) 449 nM | GI50 (KM12 colon) 1360 nM | GI50 (RXF 393 renal) 483 nM | GI50 (CCRF-CEM leukemia) 584 nM | GI50 (SNB-75 CNS) 1270 nM | GI50 (EKVX NSCLC) > 100000 nM | GI50 (SNB-19 CNS) 1870 nM | GI50 (MDA-MB-435 melanoma) 13700 nM | GI50 (SF-268 CNS) 3010 nM | GI50 (SW-620 colon) > 100000 nM | GI50 (A549 NSCLC) 656 nM | GI50 (COLO 205 colon) 527 nM | GI50 (SK-MEL-28 melanoma) 813 nM | GI50 (IGROV1 ovarian) 532 nM | GI50 (K-562 leukemia) 436 nM | GI50 (MDA-MB-231 breast) 605 nM | GI50 (NCI-H23 lung) 483 nM | GI50 (DU-145 prostate) 14200 nM
23100 nM: TGI (TK-10 renal)
2040 nM: TGI (SR leukemia)
